Assay type in all cases: in vivo
In assay [1] the test system is Larvae of Spodoptera litura. In words: Larvae of Spodoptera litura, method using artificial feeds. To be noted: artificial feed, after 7 days. Here is the method:
(§1) Unless not mentioned otherwise, the test solutions were prepared as follows:
(§2) Solvent: 3 parts by weight Dimethylformamide
(§3) Emulsifier: 1 part by weight Polyoxyethylene alkyl phenyl ether
(§4) In order to make an appropriate formulation of an active compound, 1 part by weight of the active compound is mixed with the above mentioned amount of solvent and emulsifier and the mixture is diluted with water to a prescribed concentration. Ammonium salt or ammonium salt and penetration enhancer in a dosage of 1000 ppm are added to the desired concentration if necessary.
[A Method Using Artificial Feeds (Trade Name: Insecta LFM, Manufactured by Nosan Corporation)]
Powdery artificial feeds (2.3 g) were added to a plastic cup (diameter: 7.5 cm, height: 4 cm) to achieve a certain thickness. Water-diluted liquid (5 ml) of the active compound prepared above having predetermined concentration was evenly poured thereto and allowed to stand until the feeds were solidified. Five of the 3rd-instar larvae of Spodoptera litura were released in respective cups, and covered. The cups were put in a temperature controlled room at 25° C. and humidity of 50 to 60%, and the number of dead larvae after 7 days was determined to calculate the pesticidal ratio. 100% pesticidal ratio means death of all the larvae, while 0% pesticidal ratio means no dead larvae.

The test system of assay [2] is Cucurbit Leaf Beetle (Aulacophora femoralis). In words: Cucurbit leaf beetle (Aulacophora femoralis) cucumber leaf dip test. The settings on record: after 7 days. As for the experimental part:
as §1, §2, §3, §4
Leaves of cucumber were immersed in the test solution at the appropriate concentration, and the leaves were dried in air. The leaves were then put in a plastic cup containing sterilized black soil and five Aulacophora femoralis at second instar larvae were released in the cup. The cups were placed in a temperature-controlled chamber at 25° C. After 7 days, the number of dead larvae was counted, and thus the insecticidal activity was calculated. An insecticidal activity of 100% means that all larvae were killed, whereas an insecticidal activity of 0% means that no larva was killed.

In assay [3] the test system is Two-Spotted Spider Mite (Tetranychus urticae). In words: Two-spotted spider mite (Tetranychus urticae) spray test on kidney bean. To be noted: after 7 days. Here is the method:
as §1, §2, §3, §4
50 to 100 adult mites of Tetranychus urticae were inoculated to leaves of kidney bean at two-leaf stage planted in a pot of 6 cm in diameter. After one day, test solution at the appropriate concentration was sprayed thereon in a sufficient amount using a spray gun. After the spraying, the plant pot was placed inside a greenhouse, and after 7 days, the acaricidal activity was calculated. An acaricidal activity of 100% means that all mites were killed, whereas an acaricidal activity of 0% means that no mite was killed.

[4] abbreviates: active compound concentration 20 ppm.
The mark [5] stands for this setting: active compound concentration 4 ppm.

For `CS(=O)(=O)CC(=O)NCc1ccc(N2CCC(c3cc(Cl)c(Cl)c(Cl)c3)(C(F)(F)F)C2O)cc1C(F)(F)F` (mixture of isomers) [A1-55], the “insecticidal activity (pesticidal ratio)” value in assay [1] (setting [4]) stood at 100%. In assay [2] (setting [4]), this molecule displayed an insecticidal activity of 100%. The molecule further gave an acaricidal activity in assay [3] (setting [4]) of 100%.
Regarding `Cc1cc(N2CCC(c3cc(Cl)c(Cl)c(Cl)c3)(C(F)(F)F)C2O)ccc1CNC(=O)C1CC1` (mixture of isomers) [A1-132], the “insecticidal activity (pesticidal ratio)” value in assay [1] (setting [4]) was 100%. In assay [2] (setting [4]), this molecule registered an insecticidal activity of 100%. The molecule also returned an acaricidal activity in assay [3] (setting [4]) of 100%.
Consider `CCC(=O)NCc1ccc(N2CCC(c3cc(Cl)c(Cl)c(Cl)c3)(C(F)(F)F)C2O)cc1F` (mixture of isomers) [A1-151], for which the “insecticidal activity (pesticidal ratio)” value in assay [1] (setting [4]) is on record as 100%. The molecule further displayed an insecticidal activity in assay [2] (setting [4]) of 100%. This molecule also displayed an acaricidal activity in assay [3] (setting [4]) of 100%.
As for `O=C(NCc1ccc(N2CCC(c3cc(Cl)c(Cl)c(Cl)c3)(C(F)(F)F)C2O)cc1F)C1CC1` (mixture of isomers) [A1-154], the “insecticidal activity (pesticidal ratio)” value in assay [1] (setting [4]) came out at 100%. For the same molecule, the insecticidal activity in assay [2] (setting [4]) is reported as 100%. In assay [3] (setting [4]), this molecule came in with an acaricidal activity of 100%.
As to `CC(=O)NCc1ccc(N2CCC(c3cc(Cl)c(Cl)c(Cl)c3)(C(F)(F)F)C2O)cc1Br` (mixture of isomers) [A1-161], the “insecticidal activity (pesticidal ratio)” value in assay [1] (setting [4]) worked out at 100%. The molecule further gave an insecticidal activity in assay [2] (setting [4]) of 100%. Also, the acaricidal activity in assay [3] (setting [4]) is recorded as 100%.
On to `O=C(NCc1ccc(N2CCC(c3cc(Cl)c(Cl)c(Cl)c3)(C(F)(F)F)C2O)cc1Br)C1CC1` (mixture of isomers) [A1-165], for which the “insecticidal activity (pesticidal ratio)” value in assay [1] (setting [4]) is on record as 100%. This molecule also registered an insecticidal activity in assay [2] (setting [4]) of 100%. For the same molecule, the acaricidal activity in assay [3] (setting [4]) worked out at 100%.
As to `CCC(=O)NCc1ccc(N2CCC(c3cc(C(F)(F)F)cc(C(F)(F)F)c3)(C(F)(F)F)C2O)cc1C` (mixture of isomers) [A1-184], the “insecticidal activity (pesticidal ratio)” value in assay [1] (setting [4]) stood at 100%. Besides, in assay [2] (setting [4]), the insecticidal activity is on record as 100%. In addition, in assay [3] (setting [4]), the acaricidal activity was 100%.
For the molecule `Cc1cc(N2CCC(c3cc(C(F)(F)F)cc(C(F)(F)F)c3)(C(F)(F)F)C2O)ccc1CNC(=O)C1CC1` (mixture of isomers) [A1-187], the “insecticidal activity (pesticidal ratio)” value in assay [1] (setting [4]) is on record as 100%. In assay [2] (setting [4]), this molecule showed an insecticidal activity of 100%. In assay [3] (setting [4]), this molecule showed an acaricidal activity of 100%.
`COCCC(=O)NCc1ccc(N2CCC(c3cc(C(F)(F)F)cc(C(F)(F)F)c3)(C(F)(F)F)C2O)cc1C` (mixture of isomers) [A1-190] registered an insecticidal activity in assay [2] (setting [4]) of 100%. Besides, in assay [3] (setting [4]), the acaricidal activity is listed as 100%.
Regarding `CC(=O)NCc1ccc(N2CCC(c3cc(C(F)(F)F)cc(C(F)(F)F)c3)(C(F)(F)F)C2O)cc1F` (mixture of isomers) [A1-205], the “insecticidal activity (pesticidal ratio)” value in assay [1] (setting [4]) stood at 100%. In addition, in assay [2] (setting [4]), the insecticidal activity was 100%. The molecule further came in with an acaricidal activity in assay [3] (setting [4]) of 100%.
Consider `CCC(=O)NCc1ccc(N2CCC(c3cc(C(F)(F)F)cc(C(F)(F)F)c3)(C(F)(F)F)C2O)cc1F` (mixture of isomers) [A1-206], for which the “insecticidal activity (pesticidal ratio)” value in assay [1] (setting [4]) is given as 100%. For the same molecule, the insecticidal activity in assay [2] (setting [4]) was 100%. In assay [3] (setting [4]), the acaricidal activity was determined as 100%.
In the case of `O=C(NCc1ccc(N2CCC(c3cc(C(F)(F)F)cc(C(F)(F)F)c3)(C(F)(F)F)C2O)cc1F)C1CC1` (mixture of isomers) [A1-209], the “insecticidal activity (pesticidal ratio)” value in assay [1] (setting [4]) came out at 100%. Moreover, the insecticidal activity in assay [2] (setting [4]) worked out at 100%. Besides, in assay [3] (setting [4]), the acaricidal activity is listed as 100%.
Consider `CC(=O)NC(C)c1ccc(N2CCC(c3cc(Cl)c(Cl)c(Cl)c3)(C(F)(F)F)C2O)cc1` (mixture of isomers) [A2-12], for which, in assay [1] (setting [4]), the “insecticidal activity (pesticidal ratio)” value worked out at 100%. The molecule also displayed an acaricidal activity in assay [3] (setting [4]) of 100%.
As to `CS(=O)(=O)CC(=O)NCc1ccc(N2CCC(c3cccc(C(F)(F)F)c3)(C(F)(F)F)C2O)cc1C(F)(F)F` (racemic) [A1-303], the insecticidal activity in assay [2] (setting [4]) is 100%. In assay [3] (setting [4]), this molecule had an acaricidal activity of 100%.
For the molecule `O=C(CC1CC1)NCc1ccc(N2CCC(c3cccc(C(F)(F)F)c3)(C(F)(F)F)C2O)nc1C(F)(F)F` (racemic) [A3-226], the insecticidal activity in assay [2] (setting [5]) and in assay [2] (setting [4]) was 100% each time. The acaricidal activity in assay [3] (setting [5]) and in assay [3] (setting [4]) was 100% throughout.
With `CCC(=O)NCc1ccc(N2CCC(c3cc(Cl)cc(Cl)c3)(C(F)(F)F)C2O)cc1Cl` (stereo not shown) [A1-2], the insecticidal activity in assay [2] (setting [4]) came out at 100%. Also, in assay [3] (setting [4]), the acaricidal activity is 100%.
In turn, `COCCC(=O)NCc1ccc(N2CCC(c3cc(Cl)cc(Cl)c3)(C(F)(F)F)C2O)cc1Cl` (stereo not shown) [A1-8] had an insecticidal activity in assay [2] (setting [4]) of 100%. Also, in assay [3] (setting [4]), the acaricidal activity was 100%.
Take `CC(=O)NCc1ccc(N2CCC(c3cc(Cl)c(Cl)c(Cl)c3)(C(F)(F)F)C2O)cc1Cl` (stereo not shown) [A1-12]: the “insecticidal activity (pesticidal ratio)” value in assay [1] (setting [4]) is reported as 100%. For the same molecule, the acaricidal activity in assay [3] (setting [4]) is listed as 100%.
`CCCC(=O)NCc1ccc(N2CCC(c3cc(Cl)cc(Cl)c3)(C(F)(F)F)C2O)cc1C(F)(F)F` (stereo not shown) [A1-36]: in assay [1] (setting [4]), the “insecticidal activity (pesticidal ratio)” value was determined as 100%. In assay [3] (setting [4]), this molecule came in with an acaricidal activity of 100%.
With `O=C(CC1CC1)NCc1ccc(N2CCC(c3cc(Cl)cc(Cl)c3)(C(F)(F)F)C2O)cc1C(F)(F)F` (stereo not shown) [A1-39], the insecticidal activity in assay [2] (setting [4]) is reported as 100%. The molecule further yielded an acaricidal activity in assay [3] (setting [4]) of 100%.
Turning to `COCCC(=O)NCc1ccc(N2CCC(c3cc(Cl)cc(Cl)c3)(C(F)(F)F)C2O)cc1C(F)(F)F` (stereo not shown) [A1-41], the “insecticidal activity (pesticidal ratio)” value in assay [1] (setting [4]) worked out at 100%. The acaricidal activity in assay [3] (setting [4]) was 100%.
Regarding `CC(=O)NCc1ccc(N2CCC(c3cc(Cl)c(Cl)c(Cl)c3)(C(F)(F)F)C2O)cc1C(F)(F)F` (stereo not shown) [A1-45], the “insecticidal activity (pesticidal ratio)” value in assay [1] (setting [4]) worked out at 100%. Further, the acaricidal activity in assay [3] (setting [4]) turned out to be 100%.
As for `N#CCC(=O)NCc1ccc(N2CCC(c3cc(Cl)c(Cl)c(Cl)c3)(C(F)(F)F)C2O)cc1Br` (stereo not shown) [A1-525], in assay [1] (setting [5]), the “insecticidal activity (pesticidal ratio)” value was found to be 100%. The same molecule registered an acaricidal activity in assay [3] (setting [5]) of 100%.
As for `CCC(=O)NCc1ccc(N2CCC(c3cc(Cl)c(Cl)c(Cl)c3)(C(F)(F)F)C2O)nc1C` (stereo not shown) [A3-79, N-({6-[2-hydroxy-3-(3,4,5-trichlorophenyl)-3-(trifluoromethyl)-pyrrolidin-1-yl]-2-methylpyridin-3-yl}methyl)propanamide], the pest or weed control at 20 ppm in assay [1] (Spodoptera litura, 168 h, active compound concentration 20 ppm, read-out: insecticidal activity (pesticidal ratio)) worked out at 100%; in assay [3] (Tetranychus urticae, 168 h, active compound concentration 20 ppm, read-out: acaricidal activity), 100%.
For the molecule `CC(C)CC(=O)NCc1ccc(N2CCC(c3cc(Cl)c(Cl)c(Cl)c3)(C(F)(F)F)C2O)nc1C(F)(F)F` (stereo not shown) [A3-288], the “insecticidal activity (pesticidal ratio)” value in assay [1] (setting [5]) and in assay [1] (setting [4]) was 100% in each case. Besides, the acaricidal activity in assay [3] (setting [5]) and in assay [3] (setting [4]) was 100% throughout.
For `CCNC(=O)NCc1ccc(N2CCC(c3cc(Cl)c(Cl)c(Cl)c3)(C(F)(F)F)C2O)nc1C(F)(F)F` (stereo not shown) [A3-297], the “insecticidal activity (pesticidal ratio)” value in assay [1] (setting [5]) and in assay [1] (setting [4]) was 100% throughout. Also, the acaricidal activity in assay [3] (setting [5]) and in assay [3] (setting [4]) was 100% in each case.
Turning to `CC(=O)NCc1ccc(N2CCC(c3cc(Cl)c(F)c(Cl)c3F)(C(F)(F)F)C2O)nc1Br` (stereo not shown) [A3-322], the “insecticidal activity (pesticidal ratio)” value in assay [1] (setting [5]) is listed as 100%. For the same molecule, the acaricidal activity in assay [3] (setting [4]) is 98%.
With `N#CCC(=O)NCc1ccc(N2CCC(c3cc(Cl)c(Cl)c(Cl)c3)(C(F)(F)F)C2O)nc1C(F)(F)F` (stereo not shown) [A3-421], the “insecticidal activity (pesticidal ratio)” value in assay [1] (setting [5]) is 100%. Further, the acaricidal activity in assay [3] (setting [4]) was 100%.

(Values after patent publication US9375000B2, “Pesticidal arylpyrrolidines” (Bayer Intellectual Property GmbH, priority 2011, dated 2016).)
